The source made the active and inactive calls. The calls are words filed in the database; no cut-off is given here.

The source of these data is ChEMBL document CHEMBL1141717, “New functionalized 1,2,4-trioxepanes: synthesis and antimalarial activity against multi-drug resistant P. yoelii in mice” (2008).

For assay [1], the system named is Plasmodium yoelii nigeriensis. Nature of the assay: Antimalarial activity as reduced parasitaemia against multidrug-resistant Plasmodium yoelii nigeriensis infected Swiss mice (Mus musculus) at 96mg/kg peroral dose at day 4. The arrangement: scale not given: the % may be the effect or the level left. It is filed as functional.
Assay [2] deals with Plasmodium yoelii nigeriensis. Kind of assay: Antimalarial activity as reduced parasitaemia against multidrug-resistant Plasmodium yoelii nigeriensis infected Swiss mice (Mus musculus) at 96 mg/kg intramuscular dose at day 4. On the set-up: scale not given: the % may be the effect or the level left. In kind it is functional.
For assay [3], the system named is Plasmodium yoelii nigeriensis. Kind of assay: Antimalarial activity as survivor numbers against multidrug-resistant Plasmodium yoelii nigeriensis infected Swiss mice (Mus musculus) at 96 mg/kg intramuscular dose at day 28. In kind it is functional, organism-based. On the set-up: dose 96 mg/kg.
Assay [4] has as its system Plasmodium yoelii nigeriensis. Nature of the assay: Antimalarial activity as survivor numbers against multidrug-resistant Plasmodium yoelii nigeriensis infected Swiss mice (Mus musculus) at 96 mg/kg peroral dose at day 28. It is filed as functional, organism-based. On the set-up: dose 96 mg/kg.
The subject of assay [5] is Plasmodium yoelii nigeriensis. Nature of the assay: Antimalarial activity as reduced parasitaemia against multidrug-resistant Plasmodium yoelii nigeriensis infected Swiss mice (Mus musculus) at 96 mg/kg peroral dose at day 28. In kind it is functional. The arrangement: scale not given: the % may be the effect or the level left. Conditions: route oral.
Assay [6] concerns Plasmodium yoelii nigeriensis. Nature of the assay: Antimalarial activity as survivor numbers against multidrug-resistant Plasmodium yoelii nigeriensis infected Swiss mice (Mus musculus) at 48 mg/kg peroral dose at day 28. It is filed as functional, organism-based. On the set-up: dose 48 mg/kg.
Assay [7] concerns Plasmodium yoelii nigeriensis. Kind of assay: Antimalarial activity as reduced parasitaemia against multidrug-resistant Plasmodium yoelii nigeriensis infected Swiss mice (Mus musculus) at 48 mg/kg peroral dose at day 4. In kind it is functional. The arrangement: scale not given: the % may be the effect or the level left. Conditions: route oral.

Consider `C=C(c1ccc(-c2ccccc2)cc1)C1CCOC2(CCC(Nc3ccc(C(F)(F)F)cc3)CC2)OO1` (mixture of isomers), for which the Activity amounted to 68.3% in assay [1] and 75.84% in assay [2]. The outcome in assay [3] and in assay [4] was inactive.
Regarding `C=C(c1ccccc1)C1CCOC2(CCC(=CC(=O)OCC)CC2)OO1` (mixture of isomers), the Activity in assay [1] is given as 88.76%; in assay [2], 43.58%. In addition, the result in assay [3] and in assay [4] was inactive.
Take `C=C(c1ccc(-c2ccccc2)cc1)C1CCOC2(CCC(=CC(=O)OCC)CC2)OO1` (mixture of isomers): the Activity in assay [1] came to 95.18%; in assay [2], 35.32%. For the same compound, the result in assay [3] and in assay [4] was inactive.
Take `C=C(c1ccccc1)C1CCOC2(CCC(Nc3ccccc3)CC2)OO1` (mixture of isomers): the Activity in assay [1] amounted to 78.58%; in assay [2], 75.47%. In addition, the outcome in assay [3] and in assay [4] was inactive.
As for `C=C(c1ccccc1)C1CCOC2(CCC(Nc3ccc(F)cc3)CC2)OO1` (mixture of isomers), the results for the Activity in assay [1] and in assay [2] were 63.18% and 50%, respectively. Besides, the outcome in assay [3] and in assay [4] was inactive.
Consider `C=C(c1ccc(Cl)cc1)C1CCOC2(CCC(Nc3ccccc3)CC2)OO1` (mixture of isomers), for which the Activity in assay [1] was 98.49%; in assay [2], 32.07%. For the same compound, the outcome in assay [3] and in assay [4] was inactive.
As to `C=C(c1ccc(Cl)cc1)C1CCOC2(CCC(Nc3ccc(F)cc3)CC2)OO1` (mixture of isomers), the Activity in assay [1] is 41.51%; in assay [2], 58.37%. The result in assay [3] and in assay [4] was inactive.
For the compound `C=C(c1ccc(-c2ccccc2)cc1)C1CCOC2(CCC(Nc3ccccc3)CC2)OO1` (mixture of isomers), the results for the Activity in assay [1], in assay [2] and in assay [5] were 100%, 99.01% and 75%, respectively. Besides, the outcome in assay [3] was inactive.
Take `C=C(c1ccc(-c2ccccc2)cc1)C1CCOC2(CCC(Nc3ccc(F)cc3)CC2)OO1` (mixture of isomers): the Activity in assay [1] came out at 98.08%; in assay [2], 57.69%. The result in assay [3] and in assay [4] was inactive.
Consider `C=C(c1ccc(Cl)cc1)C1CCOC2(CCC(=CC(=O)OCC)CC2)OO1` (mixture of isomers), for which the Activity was found to be 85.87% in assay [1] and 41.11% in assay [2]. Moreover, the result in assay [3] and in assay [4] was inactive.
In the case of `C=C(c1ccc(Cl)cc1)C1CCOC2(CCC(Nc3ccc(C(F)(F)F)cc3)CC2)OO1` (mixture of isomers), the Activity in assay [1] stood at 87.17%; in assay [2], 73.36%. The result in assay [3] and in assay [4] was inactive.
On to `C=C(c1ccccc1)C1CCOC2(CCC(Nc3ccc(C(F)(F)F)cc3)CC2)OO1` (mixture of isomers), for which the Activity in assay [1] turned out to be 100%; in assay [2], 24.32%; in assay [5], 40%. Also, the result in assay [3] was inactive.
On to `CCO[C@H]1O[C@@H]2O[C@@]3(C)CC[C@H]4[C@H](C)CC[C@@H]([C@H]1C)[C@@]24OO3` [ARTEMOTIL], for which the outcome in assay [6] was Active. This compound also displayed an Activity in assay [7] of 100%.
